Earlier results as cited in US4096336A, “5,6-Benzo analogues or prostaglandin E” (Miles Laboratories, Inc., priority 1977, dated 1978).
Read-outs that look alike come from different tables or passages of the source.

What was measured:
[1] = test system: motor pathways in the central nervous system
tracheal smooth muscle = details: in vitro preparations
[2] = test system: female reproductive system
thyroid activity = details: mice
growth hormone = details: rats
[3] = test system: adrenergic nervie endings; details: guinea pig
gastric secretion [4] = details: dogs
adrenal glands = details: hypophysectimized rats
gastric secretion [5] = details: man
luteolytic factors = details: variety of mammals
[6] = test system: ovarian progesterone secretion; details: sheep
blood platelets = details: in vitro
[7] = test system: smooth muscle of the vas deferens; details: mammalian male reproductive system

Structure (SMILES)	transmission in motor pathways [1]	effect on tracheal smooth muscle (tracheal smooth muscle)	thyroid activity (thyroid activity)	release of growth hormone (growth hormone)	transmitter release from adrenergic nerve endings [3]	gastric secretion (gastric secretion [4])	steriodogenesis in the adrenal glands (adrenal glands)	ovarian progesterone secretion [6]	other results
CCCCC[C@H](O)/C=C/[C@@H]1[C@@H](C/C=C\CCCC(=O)O)[C@@H](O)C[C@H]1O [PGF2α]	facilitates transmission in motor pathways in the central nervous system	contracts the smooth muscle							induction of spontaneous abortions ([2]; early pregnancy): induces spontaneous abortions in early pregnancy; effect on fertility / gestation ([2]; female reproductive system): has contragestational effects
CCCCC[C@H](O)/C=C/[C@H]1[C@H](O)CC(=O)[C@@H]1C/C=C\CCCC(=O)O [PGE2]		relax	increase thyroid activity	increase release of growth hormone	inhibit transmitter release	inhibit gastric secretion	stimulate steriodogenesis in the adrenal glands		oxytocic effects ([2]; inducing labor): exerts potent oxytocic effects in inducing labor
CCCCC[C@H](O)/C=C/[C@H]1C=CC(=O)[C@@H]1CCCCCCC(=O)O [PGA1]						inhibit gastric secretion			synthesis of growth hormone (growth hormone): increased synthesis of that hormone; gastric secretion (gastric secretion [5]): exhibits similar activity in man
CCCCC[C@H](O)/C=C/[C@@H]1[C@@H](CCCCCCC(=O)O)[C@H](O)C[C@H]1O [PGF1β]			increase thyroid activity						
CCCCC[C@H](O)/C=C/[C@@H]1[C@@H](CCCCCCC(=O)O)[C@@H](O)C[C@H]1O [PGF1α]			increase thyroid activity				stimulate steriodogenesis in the adrenal glands	inhibit ovarian progesterone secretion	luteolytic action (luteolytic factors): act as luteolytic factors
CCCCC[C@H](O)/C=C/[C@H]1[C@H](O)CC(=O)[C@@H]1CCCCCCC(=O)O [PGE1, prostaglandin E1]	retards	relax	increase thyroid activity	increase release of growth hormone	inhibit transmitter release	inhibit gastric secretion	stimulate steriodogenesis in the adrenal glands	inhibit ovarian progesterone secretion	thrombogenesis (blood platelets): inhibits thrombogenesis in vitro; effect on smooth muscle of the vas deferens [7]: contracts the smooth muscle of the vas deferens
